Results as given in patent US20260256925A1, “INDAZOLE DERIVATIVES AS ESTROGEN RECEPTOR DEGRADERS” (REGENTS OF THE UNIVERSITY OF MICHIGAN, priority 2022, published 2026).

Experiments:
[1] = molecular target: T1, ER (Homo sapiens, UniProt P03372); test: In-cell western blot analysis, relative ER percentage (compounds B1-B126); type: cell-based; conditions: ER degradation, 16 hours, read-out: ICW DC50
T1 construct: endogenous in cells; probably T47D or MCF-7
T1 sequence (P03372 1-595): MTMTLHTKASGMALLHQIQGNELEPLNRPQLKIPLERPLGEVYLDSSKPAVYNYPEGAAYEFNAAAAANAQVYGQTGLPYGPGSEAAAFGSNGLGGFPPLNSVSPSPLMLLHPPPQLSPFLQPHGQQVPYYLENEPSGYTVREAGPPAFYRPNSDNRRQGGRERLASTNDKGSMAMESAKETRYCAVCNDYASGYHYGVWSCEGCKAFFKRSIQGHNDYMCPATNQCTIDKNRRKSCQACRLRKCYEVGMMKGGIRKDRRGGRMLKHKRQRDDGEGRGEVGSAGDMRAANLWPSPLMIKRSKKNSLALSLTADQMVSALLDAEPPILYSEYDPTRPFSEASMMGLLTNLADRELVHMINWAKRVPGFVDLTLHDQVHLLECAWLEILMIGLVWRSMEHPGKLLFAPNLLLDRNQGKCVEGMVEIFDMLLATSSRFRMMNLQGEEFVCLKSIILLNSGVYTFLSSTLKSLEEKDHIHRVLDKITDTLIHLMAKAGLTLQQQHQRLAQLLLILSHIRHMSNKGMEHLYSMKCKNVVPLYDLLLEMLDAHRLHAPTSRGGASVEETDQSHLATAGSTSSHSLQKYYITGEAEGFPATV
Outline: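 Readout was a two-colour infrared in-cell western of formaldehyde-fixed cells after 16 h compound exposure at 0.5% DMSO, with 40,000 or 10,000 cells/well plated the previous night. Relative ER percentage compares treated wells against untreated/DMSO-treated wells taken as 100%.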

[2] = Cell growth assay, WST-8 (compounds B1-B126); type: cell-based; conditions: 96 h; T47D cell line, WST-8, 4 days; read-out: Cell growth inhibition in T47D cell line IC50
Outline: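 Read-out is WST-8 absorbance at 450 nm (2.5 h, 37° C) as a fraction of vehicle control, from three separate repeats. Compound exposure lasted 4 days, starting one day after plating 1500 cells/well.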

| Compound | DC50 [1] [µM] | IC50 [2] [µM] |
| --- | --- | --- |
| C[C@H]1Cc2c(ccc3[nH]ncc23)[C@H](c2ccc(NC3CN(CC(=O)N4CCN5c6cc7c(cc6OC[C@@H]5C4)C(=O)N(C4CCC(=O)NC4=O)C7)C3)cn2)N1CC(F)(F)F (stereo partly drawn) [Compound B43, 3-((S)-3-(2-(3-((6-((6R,8S)-8-methyl-7-(2,2,2-trifluoroethyl)-6,7,8,9-tetrahydro-3H-pyrazolo[4,3-f]isoquinolin-6-yl)pyridin-3-yl)amino)azetidin-1-yl)acetyl)-8-oxo-1,2,3,4,4a,5,8,10-octahydro-9H-pyrazino[1′,2′:4,5][1,4]oxazino[2,3-f]isoindol-9-yl)piperidine-2,6-dione] | 0.01 to 0.1 | 0.001 to 0.01 |
| C[C@@H]1Cc2c(ccc3[nH]ncc23)[C@@H](c2ccc(N3CCC4(CCN(CC(=O)N5Cc6cc7c(cc6C5)C(=O)N(C5CCC(=O)NC5=O)C7)CC4)CC3)cn2)N1CC(F)(F)F (stereo partly drawn) [Compound B76, 3-(6-(2-(9-(6-((6S,8R)-8-methyl-7-(2,2,2-trifluoroethyl)-6,7,8,9-tetrahydro-3H-pyrazolo[4,3-f]isoquinolin-6-yl)pyridin-3-yl)-3,9-diazaspiro[5.5]undecan-3-yl)acetyl)-1-oxo-3,5,6,7-tetrahydropyrrolo[3,4-f]isoindol-2(1H)-yl)piperidine-2,6-dione] | < 0.01 | 0.001 to 0.01 |
| C[C@@H]1Cc2c(ccc3[nH]ncc23)[C@@H](c2c(F)cc(N3CCN(C(=O)CN4CCN5c6cc7c(cc6OC[C@@H]5C4)C(=O)N(C4CCC(=O)NC4=O)C7)CC3)cc2F)N1CC(F)F (stereo partly shown) [Compound B31] | 0.01 to 0.1 | < 0.001 |
| C[C@@H]1Cc2c(ccc3[nH]ncc23)[C@@H](c2c(F)cc(NC3CC4(C3)CN(C(=O)CN3Cc5cc6c(cc5C3)C(=O)N(C3CCC(=O)NC3=O)C6=O)C4)cc2F)N1CC(F)F (stereo partly drawn) [Compound B44, 6-(2-(6-((4-((6S,8R)-7-(2,2-difluoroethyl)-8-methyl-6,7,8,9-tetrahydro-3H-pyrazolo[4,3-f]isoquinolin-6-yl)-3,5-difluorophenyl)amino)-2-azaspiro[3.3]heptan-2-yl)-2-oxoethyl)-2-(2,6-dioxopiperidin-3-yl)-6,7-dihydropyrrolo[3,4-f]isoindole-1,3(2H,5H)-dione] | < 0.01 | < 0.001 |
| C[C@@H]1Cc2c(ccc3[nH]ncc23)[C@@H](c2ccc(N3CCC4(CCN(CC(=O)N5Cc6cc7c(cc6C5)C(=O)N(C5CCC(=O)NC5=O)C7=O)CC4)CC3)cn2)N1CC(F)(F)F (stereo partly drawn) [Compound B48, 2-(2,6-dioxopiperidin-3-yl)-6-(2-(9-(6-((6S,8R)-8-methyl-7-(2,2,2-trifluoroethyl)-6,7,8,9-tetrahydro-3H-pyrazolo[4,3-f]isoquinolin-6-yl)pyridin-3-yl)-3,9-diazaspiro[5.5]undecan-3-yl)acetyl)-6,7-dihydropyrrolo[3,4-f]isoindole-1,3(2H,5H)-dione] | > 0.1 | > 0.01 |
| C[C@@H]1Cc2c(ccc3[nH]ncc23)[C@@H](c2c(F)cc(NC3CC4(C3)CN(CC(=O)N3Cc5cc6c(cc5C3)C(=O)N(C3CCC(=O)NC3=O)C6=O)C4)cc2F)N1CC(F)F (stereo partly drawn) [Compound B45, 6-(2-(6-((4-((6S,8R)-7-(2,2-difluoroethyl)-8-methyl-6,7,8,9-tetrahydro-3H-pyrazolo[4,3-f]isoquinolin-6-yl)-3,5-difluorophenyl)amino)-2-azaspiro[3.3]heptan-2-yl)acetyl)-2-(2,6-dioxopiperidin-3-yl)-6,7-dihydropyrrolo[3,4-f]isoindole-1,3(2H,5H)-dione] | 0.01 to 0.1 | 0.001 to 0.01 |
| COc1cc(N2CCC3(CC2)CC(CN2CCN4c5cc6c(cc5OC[C@@H]4C2)C(=O)N(C2CCC(=O)NC2=O)C6)C3)ccc1[C@@H]1c2ccc3[nH]ncc3c2C[C@@H](C)N1CC(F)F (stereo partly drawn) [Compound B54, 3-((S)-3-((7-(4-((6S,8R)-7-(2,2-difluoroethyl)-8-methyl-6,7,8,9-tetrahydro-3H-pyrazolo[4,3-f]isoquinolin-6-yl)-3-methoxyphenyl)-7-azaspiro[3.5]nonan-2-yl)methyl)-8-oxo-1,2,3,4,4a,5,8,10-octahydro-9H-pyrazino[1′,2′:4,5][1,4]oxazino[2,3-f]isoindol-9-yl)piperidine-2,6-dione] | < 0.01 | 0.001 to 0.01 |
| C[C@@H]1Cc2c(ccc3[nH]ncc23)[C@@H](c2cnc(N3CCC4(CCC(CN5CCC6(CC5)COc5c6ccc6c5CN([C@H]5CCC(=O)NC5=O)C6=O)CO4)CC3)nc2)N1CC(F)(F)F (stereo partly drawn) [Compound B126, (3S)-3-(1′-((9-(5-((6S,8R)-8-methyl-7-(2,2,2-trifluoroethyl)-6,7,8,9-tetrahydro-3H-pyrazolo[4,3-f]isoquinolin-6-yl)pyrimidin-2-yl)-1-oxa-9-azaspiro[5.5]undecan-3-yl)methyl)-6-oxo-6,8-dihydro-2H,7H-spiro[furo [2,3-e]isoindole-3,4′-piperidin]-7-yl)piperidine-2,6-dione] | < 0.01 | < 0.001 |
| C[C@@H]1Cc2c(ccc3[nH]ncc23)[C@@H](c2c(F)cc(N3CCC4(CCN(C(=O)CN5CCN6c7cc8c(cc7OC[C@@H]6C5)C(=O)N(C5CCC(=O)NC5=O)C8)CC4)C3)cc2F)N1CC(F)F (stereo partly drawn) [Compound B23, 3-((S)-3-(2-(2-(4-((6S,8R)-7-(2,2-difluoroethyl)-8-methyl-6,7,8,9-tetrahydro-3H-pyrazolo[4,3-f]isoquinolin-6-yl)-3,5-difluorophenyl)-2,8-diazaspiro[4.5]decan-8-yl)-2-oxoethyl)-8-oxo-1,2,3,4,4a,5,8,10-octahydro-9H-pyrazino[1′,2′:4,5][1,4]oxazino[2,3-f]isoindol-9-yl)piperidine-2,6-dione] | < 0.01 | < 0.001 |

Further lines, with some results ahead:

| DC50 [1] [µM] | Compound | IC50 [2] [µM] |
| --- | --- | --- |
| 0.01 to 0.1 | C[C@@H]1Cc2c(ccc3[nH]ncc23)[C@@H](c2ccc(N3CCC(CN4CCN5c6ccc(C(=O)N[C@H]7CCC(=O)NC7=O)nc6OC[C@H]5C4)CC3)cn2)N1CC(F)(F)F [Compound B90, (R)-N-((S)-2,6-dioxopiperidin-3-yl)-3-((1-(6-((6S,8R)-8-methyl-7-(2,2,2-trifluoroethyl)-6,7,8,9-tetrahydro-3H-pyrazolo[4,3-f]isoquinolin-6-yl)pyridin-3-yl)piperidin-4-yl)methyl)-1,2,3,4,4a,5-hexahydropyrazino[1,2-d]pyrido[2,3-b][1,4]oxazine-8-carboxamide] | 0.001 to 0.01 |
| < 0.01 | COc1cc(N2CCC3(CC2)CC(CN2CCN4c5cc6c(cc5OC[C@@H]4C2)C(=O)N(C2CCC(=O)NC2=O)C6)CO3)ccc1[C@@H]1c2ccc3[nH]ncc3c2C[C@@H](C)N1CC(F)F (stereo partly drawn) [Compound B79, 3-((4aS)-3-((8-(4-((6S,8R)-7-(2,2-difluoroethyl)-8-methyl-6,7,8,9-tetrahydro-3H-pyrazolo[4,3-f]isoquinolin-6-yl)-3-methoxyphenyl)-1-oxa-8-azaspiro[4.5]decan-3-yl)methyl)-8-oxo-1,2,3,4,4a,5,8,10-octahydro-9H-pyrazino[1′,2′:4,5][1,4]oxazino[2,3-f]isoindol-9-yl)piperidine-2,6-dione] | < 0.001 |
| < 0.01 | COc1cc(N2CCC3(CC2)OCC(CN2CCN4c5cc6c(cc5OC[C@H]4C2)C(=O)N(C2CCC(=O)NC2=O)C6)CO3)ccc1[C@@H]1c2ccc3[nH]ncc3c2C[C@@H](C)N1CC(F)F (stereo partly drawn) [Compound B115, 3-((R)-3-((9-(4-((6S,8R)-7-(2,2-difluoroethyl)-8-methyl-6,7,8,9-tetrahydro-3H-pyrazolo[4,3-f]isoquinolin-6-yl)-3-mcthoxyphenyl)-1,5-dioxa-9-azaspiro[5.5]undecan-3-yl)methyl)-8-oxo-1,2,3,4,4a,5,8,10-octahydro-9H-pyrazino[1′,2′:4,5][1,4]oxazino[2,3-f]isoindol-9-yl)piperidine-2,6-dione] | < 0.001 |
| < 0.01 | C[C@@H]1Cc2c(ccc3[nH]ncc23)[C@@H](c2ccc(N3CCC4(CC3)CC(CN3CCN5c6cc7c(cc6OC[C@@H]5C3)C(=O)N(C3CCC(=O)NC3=O)C7)CO4)cn2)N1CC(F)(F)F (stereo partly drawn) [Compound B94, 3-((4aS)-3-((8-(6-((6S,8R)-8-methyl-7-(2,2,2-trifluoroethyl)-6,7,8,9-tetrahydro-3H-pyrazolo[4,3-f]isoquinolin-6-yl)pyridin-3-yl)-1-oxa-8-azaspiro[4.5]decan-3-yl)methyl)-8-oxo-1,2,3,4,4a,5,8,10-octahydro-9H-pyrazino[1′,2′:4,5][1,4]oxazino[2,3-f]isoindol-9-yl)piperidine-2,6-dione] | < 0.001 |
| < 0.01 | COc1cc(N2CCC3(CC2)CC(CN2CCN4c5ccc6c(c5OC[C@H]4C2)CN(C2CCC(=O)NC2=O)C6=O)CO3)ccc1[C@@H]1c2ccc3[nH]ncc3c2C[C@@H](C)N1CC(F)F (stereo partly drawn) [Compound B80, 3-((5aR)-7-((8-(4-((6S,8R)-7-(2,2-difluoroethyl)-8-methyl-6,7,8,9-tetrahydro-3H-pyrazolo[4,3-f]isoquinolin-6-yl)-3-mcthoxyphenyl)-1-oxa-8-azaspiro[4.5]decan-3-yl)methyl)-1-oxo-1,3,5,5a,6,7,8,9-octahydro-2H-pyrazino[1′,2′:4,5][1,4]oxazino[2,3-e]isoindol-2-yl)piperidine-2,6-dione] | < 0.001 |
